Assay results from US11566007B2, “Ras inhibitors” (Revolution Medicines, Inc., priority 2019, dated 2023).
Several values for one entry are separate records, joined by “and”; a condition that tells them apart may be missing. Equal entries are not always repeated. Where two headings read alike, the source gives them in different places.

Legend:
KRAS G12S = KRAS G12S (Homo sapiens (Human), UniProt P01116+P62937, G12S); test: Ras-Raf (BRAF RBD) disruption / FRET / MOA assay, KRAS G12S; type: biochemical; details: Ras-Raf disruption/FRET/MOA assay; class symbols; read-out: KRAS G12S FRET data IC50
Sequence of KRAS G12S (P01116-2 other isoform, or with tags, fused parts or gaps G12S): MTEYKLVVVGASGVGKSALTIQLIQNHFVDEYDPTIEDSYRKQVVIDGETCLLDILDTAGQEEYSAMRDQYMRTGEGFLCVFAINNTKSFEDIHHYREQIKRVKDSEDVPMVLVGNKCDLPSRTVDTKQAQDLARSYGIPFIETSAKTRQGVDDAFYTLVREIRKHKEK
Sequence of KRAS G12S (P62937 whole entry): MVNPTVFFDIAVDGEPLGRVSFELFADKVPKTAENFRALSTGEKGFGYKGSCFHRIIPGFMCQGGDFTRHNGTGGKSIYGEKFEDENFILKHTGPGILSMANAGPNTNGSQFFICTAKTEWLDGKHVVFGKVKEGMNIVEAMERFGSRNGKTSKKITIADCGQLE
Summary of the method: (§1)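 Ternary complex formation (Ras–compound–cyclophilin A) displacing BRAF RBD, monitored by TR-FRET. Three hours at 25° C with compound (top 30 μM final), then 1.5 h with the labelled antibodies. Lower ratio than DMSO indicates disruption; IC50 reported.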

NCI-H358 (K-Ras G12C) = test: CellTiter-Glo cell viability assay, NCI-H358; type: cell-based, human; details: Homo sapiens, NCI-H358, 120 h, NCI-H358, 5-day treatment
Summary of the method: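 Luminescent viability readout on day 5 after direct compound addition to plated cells; plates sat ~30 min at room temperature before reading. Values expressed as percent of mean DMSO signal, curves fit with a four-parameter logistic model.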

KRAS G13D = KRAS G13D (Homo sapiens (Human), UniProt P01116+P62937, G13D); test: Ras-Raf (BRAF RBD) disruption / FRET / MOA assay, KRAS G13D; type: biochemical; details: read-out: IC50* KRAS G13D FRET data
Sequence of KRAS G13D (P01116-2 other isoform, or with tags, fused parts or gaps G13D): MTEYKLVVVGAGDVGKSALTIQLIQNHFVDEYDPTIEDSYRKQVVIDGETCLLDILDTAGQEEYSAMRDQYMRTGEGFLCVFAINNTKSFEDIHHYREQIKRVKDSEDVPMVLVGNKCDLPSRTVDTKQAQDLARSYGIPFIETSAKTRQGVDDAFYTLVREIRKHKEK
Sequence of KRAS G13D (P62937 whole entry): as the sequence (P62937 whole entry) above
Summary of the method: as §1

[1] = system: NCI-H358 cells (K-Ras G12C); test: Potency assay: pERK in NCI-H358 cells; type: cell-based, human; details: Homo sapiens
Summary of the method: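 Compounds are dosed as ten 3-fold dilutions from a 10 mM DMSO stock, in duplicate, and left on cells for 4 h at 37 °C, 5% CO2. Phospho-ERK1/2 is then quantified by AlphaLISA SureFire Ultra or In-Cell Western, and IC50 is derived from a 4-parameter sigmoid against log concentration.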

KRAS G12D = KRAS G12D (Homo sapiens (Human), UniProt P01116+P62937, G12D); test: Ras-Raf (BRAF RBD) disruption / FRET / MOA assay, KRAS G12D; type: biochemical; details: Ras-Raf disruption/FRET/MOA assay; class symbols; read-out: KRAS G12D FRET data IC50
Sequence of KRAS G12D (P01116-2 other isoform, or with tags, fused parts or gaps G12D): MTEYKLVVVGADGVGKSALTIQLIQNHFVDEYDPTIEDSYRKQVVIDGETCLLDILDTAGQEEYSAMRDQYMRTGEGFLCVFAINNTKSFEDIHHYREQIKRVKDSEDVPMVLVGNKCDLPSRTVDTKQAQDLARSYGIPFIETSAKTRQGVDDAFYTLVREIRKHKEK
Sequence of KRAS G12D (P62937 whole entry): as the sequence (P62937 whole entry) above
Summary of the method: as §1

KRAS WT = KRAS WT (Homo sapiens (Human), UniProt P01116+P62937); test: Ras-Raf (BRAF RBD) disruption / FRET / MOA assay, KRAS WT; type: biochemical; details: read-out: IC50* KRAS WT FRET data
Sequence of KRAS WT (P01116-2 other isoform, or with tags, fused parts or gaps): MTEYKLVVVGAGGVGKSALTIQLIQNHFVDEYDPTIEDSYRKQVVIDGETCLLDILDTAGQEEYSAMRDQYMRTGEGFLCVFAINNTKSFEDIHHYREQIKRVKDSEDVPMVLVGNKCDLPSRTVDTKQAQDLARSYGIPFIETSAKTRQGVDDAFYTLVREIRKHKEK
Sequence of KRAS WT (P62937 whole entry): as the sequence (P62937 whole entry) above
Summary of the method: as §1

K-Ras G12C = K-Ras G12C (Homo sapiens (Human), UniProt P01116+P62937, G12C); test: Ras-Raf (BRAF RBD) disruption / FRET / MOA assay, KRAS G12C; type: biochemical
Sequence of K-Ras G12C (P01116-2 other isoform, or with tags, fused parts or gaps G12C): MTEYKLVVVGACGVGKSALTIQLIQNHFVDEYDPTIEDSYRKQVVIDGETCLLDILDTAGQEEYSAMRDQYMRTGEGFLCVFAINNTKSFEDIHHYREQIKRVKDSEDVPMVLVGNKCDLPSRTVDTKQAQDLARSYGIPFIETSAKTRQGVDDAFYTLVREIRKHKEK
Sequence of K-Ras G12C (P62937 whole entry): as the sequence (P62937 whole entry) above
Summary of the method: as §1

K-Ras G13C = K-Ras G13C (Homo sapiens (Human), UniProt P01116+P62937, G13C); test: Ras-Raf (BRAF RBD) disruption / FRET / MOA assay, KRAS G13C; type: biochemical
Sequence of K-Ras G13C (P01116-2 other isoform, or with tags, fused parts or gaps G13C): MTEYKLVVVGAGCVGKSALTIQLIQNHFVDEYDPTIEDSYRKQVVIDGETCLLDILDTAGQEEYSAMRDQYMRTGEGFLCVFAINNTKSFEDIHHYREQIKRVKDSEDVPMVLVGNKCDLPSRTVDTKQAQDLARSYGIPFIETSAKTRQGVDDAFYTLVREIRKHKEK
Sequence of K-Ras G13C (P62937 whole entry): as the sequence (P62937 whole entry) above
Summary of the method: as §1

KRAS G12V = KRAS G12V (Homo sapiens (Human), UniProt P01116+P62937, G12V); test: Ras-Raf (BRAF RBD) disruption / FRET / MOA assay, KRAS G12V; type: biochemical; details: read-out: IC50* KRAS G12V FRET data
Sequence of KRAS G12V (P01116-2 other isoform, or with tags, fused parts or gaps G12V): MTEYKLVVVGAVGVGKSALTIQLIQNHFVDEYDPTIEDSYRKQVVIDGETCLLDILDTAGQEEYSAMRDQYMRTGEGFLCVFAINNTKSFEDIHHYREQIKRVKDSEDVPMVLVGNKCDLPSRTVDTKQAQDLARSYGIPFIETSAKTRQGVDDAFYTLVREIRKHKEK
Sequence of KRAS G12V (P62937 whole entry): as the sequence (P62937 whole entry) above
Summary of the method: as §1

NRAS G12C = NRAS G12C (Homo sapiens (Human), UniProt P01111+P62937, G12C); test: Ras-Raf (BRAF RBD) disruption / FRET / MOA assay, NRAS G12C; type: biochemical; details: read-out: IC50* NRAS G12C FRET data
Sequence of NRAS G12C (P01111 whole entry G12C): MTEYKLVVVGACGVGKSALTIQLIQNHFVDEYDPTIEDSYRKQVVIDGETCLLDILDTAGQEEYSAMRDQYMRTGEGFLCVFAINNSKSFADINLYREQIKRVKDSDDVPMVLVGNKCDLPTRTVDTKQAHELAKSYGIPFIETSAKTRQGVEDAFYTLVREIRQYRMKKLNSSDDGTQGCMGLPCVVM
Sequence of NRAS G12C (P62937 whole entry): as the sequence (P62937 whole entry) above
Summary of the method: as §1

[2] = class symbols, read-out: Additional H358 Cell Viability assay data (K-Ras G12C, IC50)
[3] = NCI-H358, H358 KRAS G12C, read-out: pERK EC50
[4] = KRAS G12C, Ras-Raf disruption/FRET/MOA assay, read-out: IC50* KRAS G12C FRET data
[5] = KRAS G13C, Ras-Raf disruption/FRET/MOA assay, read-out: IC50* KRAS G13C FRET data

| IC50 (NCI-H358 (K-Ras G12C); read-out: H358 Cell Viability (K-Ras G12C) IC50) [nM] | EC50 ([1]; NCI-H358 cells, 4 hours, read-out: H358 pERK (K-Ras G12C) EC50) [nM] | IC50 (K-Ras G12C; with Cyclophilin A, BRAF RBD, read-out: FRET (K-Ras G12C) IC50) [nM] | IC50 (K-Ras G13C; with Cyclophilin A, BRAF RBD, read-out: FRET (K-Ras G13C) IC50) [nM] | SMILES | IC50 (KRAS G12S) | IC50 (NCI-H358 (K-Ras G12C); [2]) [nM] | IC50 (KRAS G13D) | EC50 [1, 3] [nM] | IC50 (KRAS G12D) | IC50 (KRAS WT) | IC50 (K-Ras G12C; [4]) | IC50 (K-Ras G13C; [5]) | IC50 (KRAS G12V) | IC50 (NRAS G12C) |
| --- | --- | --- | --- | --- | --- | --- | --- | --- | --- | --- | --- | --- | --- | --- |
| – | – | – | – | C=CC(=O)N1CC[C@H](C(=O)N(C)[C@H](C(=O)N[C@H]2Cc3cc(O)cc(c3)-c3ccc4c(c3)c(c(-c3cncnc3)n4CC)CC(C)(C)COC(=O)[C@@H]3CCCN(N3)C2=O)C(C)C)O1 [Example A180] | 1000 to 10000 nM | > 1000 | 1000 to 10000 nM | < 5000 | 1000 to 10000 nM | 100 to 1000 nM | 100 to 1000 nM | 100 to 1000 nM | 100 to 1000 nM | 100 to 1000 nM |
| – | – | – | – | CCn1c(-c2cncnc2)c2c3cc(ccc31)-c1cccc(c1)C[C@H](NC(=O)[C@H](C(C)C)N(C)C(=O)[C@H]1CCN(C(=O)C#CCN3CCOCC3)C1)C(=O)N1CCC[C@H](N1)C(=O)OCC(C)(C)C2 [Example A185] | > 10000 nM | 100 to 1000 | > 10000 nM | < 5000 | > 10000 nM | > 10000 nM | 100 to 1000 nM | > 10000 nM | > 10000 nM | 100 to 1000 nM |
| – | – | – | – | CCn1c(-c2cccnc2COC)c2c3cc(ccc31)-c1cc(O)cc(c1)C[C@H](NC(=O)[C@H](C(C)C)N(C)C(=O)[C@H]1CCN(C(=O)C#CCN3CCN(C)CC3)C1)C(=O)N1CCC[C@H](N1)C(=O)OCC(C)(C)C2 [Example A189] | 100 to 1000 nM | > 1000 | 100 to 1000 nM | < 5000 | 100 to 1000 nM | 100 to 1000 nM | 10 to 100 nM | 100 to 1000 nM | 100 to 1000 nM | 10 to 100 nM |
| – | – | – | – | CCn1c(-c2cccnc2)c2c3cc(ccc31)-c1csc(n1)C[C@H](NC(=O)[C@H](C(C)C)N(C)C(=O)[C@H]1CCN(C(=O)C#CCN3CCOCC3)C1)C(=O)N1CCC[C@H](N1)C(=O)OCC(C)(C)C2 [Example A190] | > 10000 nM | 100 to 1000 | > 10000 nM | < 5000 | > 10000 nM | > 10000 nM | 100 to 1000 nM | > 10000 nM | > 10000 nM | 100 to 1000 nM |
| – | – | – | – | CCn1c(-c2cccnc2)c2c3cc(ccc31)-c1cccc(c1)C[C@H](NC(=O)[C@H](C(C)C)N(C)C(=O)[C@H]1CCN(C(=O)C#CCN3CCOCC3)C1)C(=O)N1CCC[C@H](N1)C(=O)OCC(C)(C)C2 [Example A195] | > 10000 nM | 100 to 1000 | > 10000 nM | < 5000 | > 10000 nM | > 10000 nM | 100 to 1000 nM | > 10000 nM | > 10000 nM | 100 to 1000 nM |
| – | – | – | – | CCn1c(-c2cccnc2COC)c2c3cc(ccc31)-c1cc(O)cc(c1)C[C@H](NC(=O)[C@@H](C(C)C)N(C)C(=O)[C@H]1CCN(C(=O)C#CCN3CCOCC3)C1)C(=O)N1CCC[C@H](N1)C(=O)OCC(C)(C)C2 [Example A200] | > 10000 nM | 100 to 1000 | > 10000 nM | < 5000 | > 10000 nM | > 10000 nM | 10 to 100 nM | 1000 to 10000 nM | > 10000 nM | 10 to 100 nM |
| 4 | 13 | 23 | 7480 | CCn1c(-c2cncnc2)c2c3cc(ccc31)-c1cccc(c1)[C@@H](OC)[C@H](NC(=O)[C@H](C(C)C)N(C)C(=O)[C@H]1CCN(C(=O)C#CCN3CCOCC3)C1)C(=O)N1CCC[C@H](N1)C(=O)OCC(C)(C)C2 [Example A208] | > 10000 nM | > 1000 | > 10000 nM | < 5000 | > 10000 nM | > 10000 nM | 100 to 1000 nM | > 10000 nM | > 10000 nM | 1000 to 10000 nM |
| – | – | – | – | CCn1c(-c2ccccc2CN(C)C)c2c3cc(ccc31)-c1cc(O)cc(c1)C[C@H](NC(=O)[C@H](C(C)C)N(C)Cc1ccc(NC(=O)/C=C/CN(C)C)cn1)C(=O)N1CCC[C@H](N1)C(=O)OCC(C)(C)C2 [Example A213] | 1000 to 10000 nM and > 10000 nM | > 1000 | 1000 to 10000 nM and > 10000 nM | < 5000 | 1000 to 10000 nM and > 10000 nM | 1000 to 10000 nM and > 10000 nM | 100 to 1000 nM and > 10000 nM | 100 to 1000 nM and 1000 to 10000 nM | 1000 to 10000 nM and > 10000 nM | 1000 to 10000 nM and > 10000 nM |
